Reference: US5059438A, “Compositions and methods for inhibiting browning in foods using resorcinol derivatives” (Enzytech, Inc., priority 1990, dated 1991)
pIC50: −log10 of the molar value. Blank lines part the entries; values can stand above or below the compound they belong to.

Assays:
[1] = tested on: McIntosh apples, browning; assay: Inhibition of browning in apples by Formula V and YM5 eluate; conditions: lactose 9.0%, 1,4-diaminobutane 5 mM
Procedure: Two fresh and unbruised whole McIntosh apples, held at ambient temperature,were sliced with a stainless steel paring knife into quarters, cored, then cut into 1/4-inch slices. A volume of 0.8 mL of each of the treatment solutions listed in Table 5 at ambient temperature was applied onto the top exposed surface of freshly cut white slices, triplicate samples per treatment. […] Following application, the slices stood at ambient temperature, exposed to air and light, for periodic visual observation of relative rate and extent of browning, from 15 minutes to 4 hours.

PPO (mushroom) = assay: Inhibition of PPO by various resorcinol derivatives (linear spectrophotometric assay); format: biochemical; conditions: 0.133 mM L-DOPA, pH 6.5, 25° C., 475 nm, read-out: I50 (apparent inhibition constant)
Procedure: In order to determine the effect of various resorcinol compounds on the inhibition of PPO (mushroom), a linear spectrophotmetric assay system similar to that described in Example 1 was used. The assay mixture consisted of:
5 mM sodium phosphate, pH 6.5;
0.133 mM L-dihydroxyphenylalanine (L-DOPA); PPO (mushroom); and
+/- varied concentrations of the compound to be tested
The rate of the reaction was monitored by measuring the change in absorbance per minute at 475 nm at 25° C.
I50 represents the concentration of inhibitor necessary to obtain fifty (50%) percent inhibition of the enzyme.

pink shrimp melanosis = assay: Effect of 4-hexylresorcinol, Formula VI and Formula IV compounds on development of shrimp melanosis; set-up: species or system Penaeus duorarum
Procedure: In one embodiment of the present invention, pink shrimp were treated with an aqueous solution of the compound of Formula II. Formula II was used at concentrations ranging from 0.0001 to 0.005%, and compared to shrimp treated with sodium bisulfite and sea water. The sea water treated shrimp developed melanosis spots within 1-2 days. […] A concentration of up to about 0.1% of Formula II can be used for inhibiting browning.
Harvests were arranged such that fresh, heads-on pink shrimp were obtained within less than 12 hours post-harvest at the dock. All shrimp were routinely washed on-board and temporarily stored in ice. The basic procedure was to rinse 400-600 grams of shrimp in 2.5 liters of variable dip compositions and concentrations for 1 minute then drain and package in plastic bags to be stored in ice. The bags were considered necessary to eliminate the variable influence of melting ice. Iced containers with packaged shrimp were stored in 35° F. (1.7° C.) refrigeration with reicing every other day.
Development of melanosis was scored and photographed routinely during 2 weeks of storage. The bags of shrimp had been numbered such that the investigator could not distinguish amongst the various treatments. One experienced investigator did all scoring relative to the aforementioned scale (Table 2). The scale was accompanied by pre-developed color prints depicting common examples of the advancing stages for melanosis. The intent was to screen for obvious differences between treatments, thus selecting the best treatments for subsequent tests with statistical evaluations.
Pink shrimp were treated and evaluated as described in Example 8 except that the compound of Formula II (4-hexylresorcinol, Sigma Chemical Co.) was substituted for the Formula V compound. Pink shrimp were dipped into solutions of 0.0001-0.005% of the Formula II compound and stored as described above.
Pink shrimp were treated and evaluated as described in Example 8 except that the compound of Formula VI (see Example 6) was substituted for the Formula V compound. Pink shrimp were dipped into solutions of 0.001-0.025%of the Formula VI compound and stored as described above.
Pink shrimp were treated and evaluated as described in Example 8 except that the compound of Formula IV (2,4-dihydroxyphenylpropionic acid) was substituted for the Formula V compound. Pink shrimp were dipped into solutions of 0.001-0.1% the Formula IV compound and stored as described above.

[2] = tested on: fresh pink shrimp (Penaeus duorarum) melanosis; assay: Effect of Formula V compound on fresh pink shrimp melanosis
Procedure: Pink shrimp (Penaeus duorarum) were treated and evaluated as described in Example 8 except that the experiment was carried out on a shrimp boat with freshly caught shrimp. The shrimp were not frozen prior to treatment with various concentrations of the compound of Formula V. All solutions were prepared in sea water.
Fresh pink shrimp were treated and evaluated as described in Example 12. The shrimp treated with 0.025% of the compound of Formula V were stored directly or following a sea water rinse, post-treatment.
Fresh pink shrimp were treated and evaluated as described in Example 12. The shrimp were dipped in a 0.01% solution of the compound of Formula V made up in either sea or fresh water.
Fresh pink shrimp were treated and evaluated as described in Example 12. In this example, different one pound batches of shrimp were dipped into the same one liter solution of 0.01% of the Formula V compound for one minute each. A total of eight dips were performed.

PPO in peaches = conditions: Wong et al. 1971; cited from earlier work
[3] = tested on: mushroom PPO (catecholase); conditions: Kuttner and Wagreich 1952; cited from earlier work

SMILES: NCCCCN [1,4-diaminobutane]
prevention of browning of apples, conclusion [1]: did not prevent browning

SMILES: O=C(O)CCc1ccc(O)cc1O [Formula IV, 2,4-dihydroxyphenylpropionic acid]
lowest concentration inhibiting formation of shrimp melanosis (inhibitor at concentrations as low as) (pink shrimp melanosis; FIG. 12, tested 0.001-0.1%): 0.05%

SMILES: NCCCCNC(=O)CCc1ccc(O)cc1O [Formula V, 2,4-dihydroxyphenylpropionyldiaminobutane]
effect of fresh or sea water as solvent on inhibition of shrimp melanosis (FIG. 8) ([2]; 0.01%): no significant effect
effect of post-treatment sea water rinse on inhibition of shrimp melanosis (FIG. 7) ([2]; 0.025%): no significant effect

SMILES: OC[C@H]1O[C@@H](O[C@H]2[C@H](O)[C@@H](O)C(O)O[C@@H]2CO)[C@H](O)[C@@H](O)[C@H]1O (stereo partly shown) [Lactose]
prevention of browning of apples, conclusion [1]: did not prevent browning

SMILES: O=C(O)c1ccccc1 [benzoic acid]
inhibition of mushroom PPO (catecholase) [3]: inhibited

SMILES: Oc1cc(O)c2c(c1)O[C@H](c1ccc(O)c(O)c1)[C@@H](O)C2 [d-catechin]
reaction with 4-methyl-o-quinone formed by PPO in peaches (PPO in peaches): react with 4-methyl-o-quinone
substrate for PPO (PPO in peaches): not substrates for PPO

SMILES: Cc1cc(O)cc(O)c1 [orcinol]
reaction with 4-methyl-o-quinone formed by PPO in peaches (PPO in peaches): react with 4-methyl-o-quinone
substrate for PPO (PPO in peaches): not substrates for PPO

SMILES: Oc1cc(O)cc(O)c1 [phloroglucinol]
reaction with 4-methyl-o-quinone formed by PPO in peaches (PPO in peaches): react with 4-methyl-o-quinone
substrate for PPO (PPO in peaches): not substrates for PPO

The next lines start with results.

pIC50 (PPO (mushroom)): 3.82
SMILES: O=C(O)c1ccc(O)cc1O [4-Carboxyresorcinol, 2,4-Dihydroxybenzoic Acid]

pIC50 (PPO (mushroom)): 6.70
SMILES: Oc1ccc(C2CCCCC2)c(O)c1 [4-Cyclohexylresorcinol]

pIC50 (PPO (mushroom)): 6.52
SMILES: CCCCCCCCCCCCc1ccc(O)cc1O [4-Dodecylresorcinol]

pIC50 (PPO (mushroom)): 6.10
SMILES: CCc1ccc(O)cc1O [4-Ethylresorcinol]

pIC50 (PPO (mushroom)): 3.12
SMILES: CCCCCC(=O)c1ccc(O)cc1O [4-Hexanoylresorcinol]

pIC50 (PPO (mushroom)): 5.74
SMILES: CCCc1ccc(O)cc1O [4-n-Propylresorcinol]

pIC50 (PPO (mushroom)): 6.30
SMILES: CCCCCCc1ccc(O)cc1O [Formula II, 4-hexylresorcinol]
inhibiting browning of shrimp on a weight basis vs sodium bisulfite (pink shrimp melanosis; 0.0001 to 0.005% (FIG. 10)): more effective on a weight basis than sodium bisulfite
inhibiting shrimp melanosis vs sodium bisulfite (pink shrimp melanosis; 0.005% by weight vs 1.25% by weight bisulfite (FIG. 10)): almost as effective in inhibiting shrimp melanosis as a solution of 1.25% by weight bisulfite
lowest concentration inhibiting formation of shrimp melanosis (potent inhibitor at concentrations as low as) (pink shrimp melanosis; FIG. 10, tested 0.0001-0.005%): 0.0005%

pIC50 (PPO (mushroom)): 5.30
SMILES: O=C(CCc1ccc(O)cc1O)NCCCCNC(=O)CCc1ccc(O)cc1O [Formula VI, bis-2,4-dihydroxyphenylpropionyldiaminobutane]
lowest concentration inhibiting formation of shrimp melanosis (potent inhibitor at concentrations as low as) (pink shrimp melanosis; FIG. 11, tested 0.001-0.025%): 0.005%

pIC50 (PPO (mushroom)): 5.30
SMILES: O=C(CCc1ccc(O)cc1O)NCCCCNCCCNC(=O)CCc1ccc(O)cc1O [Formula VII, bis-2,4-dihydroxyphenylpropionylspermidine]

pIC50 (PPO (mushroom)): 2.57
SMILES: Oc1cccc(O)c1 [Resorcinol, 1,3-dihydroxybenzene]
reaction with 4-methyl-o-quinone formed by PPO in peaches (PPO in peaches): react with 4-methyl-o-quinone
substrate for PPO (PPO in peaches): not substrates for PPO
